Data published in patent publication US4843070A, “Substituted thiazetoquinoline-3-carboxylic acids and pharmaceutically acceptable salts thereof” (priority 1986, dated 1989).
Converted amounts (≈) assume the structure as drawn. Where two headings read alike, the source gives them in different places.

Assays:
K. pneumoniae K-1966 = assay: MIC by agar plate dilution method, K. pneumoniae K-1966; format: cell-based; details: Klebsiella pneumoniae, read-out: minimum inhibitory concentration (MIC)
Method: (§1) Test method: The MIC was measured by an agar plate dilution method in accordance with a standard method of Japan Chemotherapeutic Society (cf. Nippon Kagaku Ryoho Gakkaishi, 29(1), 76-79, 1981). Thus, the organisms incubated at 37° C. for 18 hours using sensitivity test broth (Nissei) was diluted to 10^6 CFU/ml using the same broth. […] As a control, enoxacin and ofloxacin were used in Tests 1 and 2, respectively.
(§2) The numbers of the inoculated bacteria were 10^6 in all cases and the unit of the MIC was micrograms/ml.

P. vulgaris HX-19 = assay: MIC by agar plate dilution method, P. vulgaris HX-19; format: cell-based; details: Proteus vulgaris, HX19, Test 1, inoculum 10^6, 37° C., 18 hours, read-out: minimum inhibitory concentration (MIC)
Method: as §1, §2

S. aureus 209-P JC = assay: MIC by agar plate dilution method, S. aureus 209-P JC; format: cell-based; details: Staphylococcus aureus, read-out: minimum inhibitory concentration (MIC)
Method: as §1, §2

M. luteus ATCC 9341 = assay: MIC by agar plate dilution method, M. luteus ATCC 9341; format: cell-based; details: Micrococcus luteus, read-out: minimum inhibitory concentration (MIC)
Method: as §1, §2

S. aureus Smith = assay: MIC by agar plate dilution method, S. aureus Smith; format: cell-based; details: Staphylococcus aureus, read-out: minimum inhibitory concentration (MIC)
Method: as §1, §2

P. aeruginosa E-2 = assay: MIC by agar plate dilution method, P. aeruginosa E-2; format: cell-based; details: Pseudomonas aeruginosa, read-out: minimum inhibitory concentration (MIC)
Method: as §1, §2

B. subtilis ATCC 6633 = assay: MIC by agar plate dilution method, B. subtilis ATCC 6633; format: cell-based; details: Bacillus subtilis, read-out: minimum inhibitory concentration (MIC)
Method: as §1, §2

S. flexneri = assay: MIC by agar plate dilution method, S. flexneri; format: cell-based; details: Shigella flexneri, Test 1, inoculum 10^6, 37° C., 18 hours, read-out: minimum inhibitory concentration (MIC)
Method: as §1, §2

E. coli NIHJ JC-2 = assay: MIC by agar plate dilution method, E. coli NIHJ JC-2; format: cell-based; details: Escherichia coli, read-out: minimum inhibitory concentration (MIC)
Method: as §1, §2

A. calcoaceticus 54 = assay: MIC by agar plate dilution method, A. calcoaceticus 54; format: cell-based; details: read-out: minimum inhibitory concentration (MIC)
Method: as §1, §2

S. marcescens IFO 3736 = assay: MIC by agar plate dilution method, S. marcescens IFO 3736; format: cell-based; details: Serratia marcescens, read-out: minimum inhibitory concentration (MIC)
Method: as §1, §2

E. coli KC-14 = assay: MIC by agar plate dilution method, E. coli KC-14; format: cell-based; details: Escherichia coli, read-out: minimum inhibitory concentration (MIC)
Method: as §1, §2

E. cloacae No. 1 = assay: MIC by agar plate dilution method, E. cloacae No. 1; format: cell-based; details: Enterobacter cloacae, read-out: minimum inhibitory concentration (MIC)
Method: as §1, §2

[1] = tested on: infections caused by Gram positive bacteria and Pseudomonas aeruginosa (chronic); details: background statement; cited from earlier work
[2] = K1966, Test 1, K. pneumoniae K-1966, inoculum 10^6, 37° C., 18 hours
[3] = Test 1, S. aureus 209-P JC, inoculum 10^6, 37° C., 18 hours
[4] = ATCC9341, Test 1, M. luteus ATCC 9341, inoculum 10^6, 37° C., 18 hours
[5] = Test 1, S. aureus Smith, inoculum 10^6, 37° C., 18 hours
[6] = E2, Test 1, P. aeruginosa E-2, inoculum 10^6, 37° C., 18 hours
[7] = ATCC6633, Test 1, B. subtilis ATCC 6633, inoculum 10^6, 37° C., 18 hours
[8] = NIHJJC2, Test 1, E. coli NIHJ JC-2, inoculum 10^6, 37° C., 18 hours
[9] = Acinetobacter calcoaceticus, Test 1, A. calcoaceticus 54, inoculum 10^6, 37° C., 18 hours
[10] = IFO3736, Test 1, S. marcescens IFO 3736, inoculum 10^6, 37° C., 18 hours
[11] = KC14, Test 1, E. coli KC-14, inoculum 10^6, 37° C., 18 hours
[12] = Test 1, E. cloacae No. 1, inoculum 10^6, 37° C., 18 hours

| SMILES | MIC (K. pneumoniae K-1966; [2]) [µg/mL] | MIC (P. vulgaris HX-19) [µg/mL] | MIC (S. aureus 209-P JC; [3]) [µg/mL] | MIC (M. luteus ATCC 9341; [4]) [µg/mL] | MIC (S. aureus Smith; [5]) [µg/mL] | MIC (P. aeruginosa E-2; [6]) [µg/mL] | MIC (B. subtilis ATCC 6633; [7]) [µg/mL] | MIC (S. flexneri) [µg/mL] | MIC (E. coli NIHJ JC-2; [8]) [µg/mL] | MIC (A. calcoaceticus 54; [9]) [µg/mL] | MIC (S. marcescens IFO 3736; [10]) [µg/mL] | MIC (E. coli KC-14; [11]) [µg/mL] | MIC (E. cloacae No. 1; [12]) [µg/mL] | activity against infections caused by Gram positive bacteria and Pseudomonas aeruginosa (chronic) [1] | other results |
| --- | --- | --- | --- | --- | --- | --- | --- | --- | --- | --- | --- | --- | --- | --- | --- |
| CC1Sc2c(C(=O)O)c(=O)c3cc(F)c(N4CCSCC4)cc3n21 (centres unmarked) [(6)] | 0.1 (≈ 0.273 µM) | ≤ 0.0063 | 0.05 (≈ 0.136 µM) | 1.56 (≈ 4.26 µM) | ≤ 0.0063 | 0.78 (≈ 2.13 µM) | ≤ 0.0063 | 0.1 (≈ 0.273 µM) | 0.2 (≈ 0.546 µM) | 0.2 (≈ 0.546 µM) | 0.78 (≈ 2.13 µM) | 0.05 (≈ 0.136 µM) | 0.39 (≈ 1.06 µM) | – | – |
| CC1Sc2c(C(=O)O)c(=O)c3cc(F)c(N4CCC(N)C4)cc3n21.CCS(=O)(=O)O (centres unmarked) [Table 1 (8), 6-Fluoro-1-methyl-7-(3-amino-1-pyrrolidinyl)-4-oxo-4H-(1,3)thiazeto(3,2-a)quinoline-3-carboxylic acid ethanesulfonate] | – | ≤ 0.0063 | – | – | – | – | – | ≤ 0.0063 | – | – | – | – | – | – | MIC (K. pneumoniae K-1966; K1966, 18 h): 0.025 µg/mL; MIC (S. aureus 209-P JC; 209P, 18 h): 0.025 µg/mL; MIC (M. luteus ATCC 9341; ATCC9341, 18 h): 0.2 µg/mL; MIC (S. aureus Smith; 18 h): 0.05 µg/mL; MIC (P. aeruginosa E-2; E2, 18 h): 0.1 µg/mL; MIC (B. subtilis ATCC 6633; ATCC6633, 18 h): 0.05 µg/mL; MIC (E. coli NIHJ JC-2; NIHJJC2, 18 h): 0.05 µg/mL; MIC (A. calcoaceticus 54; Acinetobacter calcoaceticus, 54, 18 h): 0.78 µg/mL; MIC (S. marcescens IFO 3736; IFO3736, 18 h): 0.1 µg/mL; MIC (E. coli KC-14; KC14, 18 h): ≤ 0.0063 µg/mL; MIC (E. cloacae No. 1; NO.1, 18 h): 0.025 µg/mL |
| CCn1cc(C(=O)O)c(=O)c2cnc(N3CCCC3)nc21 [piromidic acid] | – | – | – | – | – | – | – | – | – | – | – | – | – | not active | – |
| CC1Sc2c(C(=O)O)c(=O)c3cc(Cl)c(N4CCNCC4)cc3n21 (centres unmarked) [(7)] | 0.025 (≈ 0.0683 µM) | 0.025 (≈ 0.0683 µM) | 0.1 (≈ 0.273 µM) | 1.56 (≈ 4.26 µM) | 0.2 (≈ 0.547 µM) | 1.56 (≈ 4.26 µM) | 0.2 (≈ 0.547 µM) | 0.0125 (≈ 0.0342 µM) | 0.05 (≈ 0.137 µM) | 3.13 (≈ 8.56 µM) | 0.1 (≈ 0.273 µM) | 0.025 (≈ 0.0683 µM) | 0.05 (≈ 0.137 µM) | – | – |
| CCn1cc(C(=O)O)c(=O)c2ccc(C)nc21 [nalidixic acid] | – | – | – | – | – | – | – | – | – | – | – | – | – | not active | – |
| CC1Sc2c(C(=O)O)c(=O)c3cc(F)c(N4CCN(Cc5ccc(N)cc5)CC4)cc3n21 (centres unmarked) [Table 1 (10), 7-(4-(4-Aminobenzyl)-1-piperazinyl)-6-fluoro-1-methyl-4-oxo-4H-(1,3)thiazeto(3,2-a)quinoline-3-carboxylic acid] | 0.2 (≈ 0.44 µM) | 0.1 (≈ 0.22 µM) | 0.05 (≈ 0.11 µM) | 0.39 (≈ 0.858 µM) | ≤ 0.0063 | 3.13 (≈ 6.89 µM) | ≤ 0.0063 | 0.1 (≈ 0.22 µM) | 0.2 (≈ 0.44 µM) | 0.39 (≈ 0.858 µM) | 0.56 (≈ 1.23 µM) | 0.05 (≈ 0.11 µM) | 0.39 (≈ 0.858 µM) | – | – |
| CCn1cc(C(=O)O)c(=O)c2cnc(N3CCNCC3)nc21 [pipemidic acid] | – | – | – | – | – | – | – | – | – | – | – | – | – | not active | – |
| CC1Sc2c(C(=O)O)c(=O)c3cc(F)c(N4CCN(C)CC4)c(N)c3n21 (centres unmarked) [Table 1 (9), 8-Amino-6-fluoro-1-methyl-7-(4-methyl-1-piperazinyl)-4-oxo-4H-(1,3)thiazeto(3,2-a)quinoline-3-carboxylic acid] | 0.1 (≈ 0.264 µM) | 0.025 (≈ 0.0661 µM) | 0.39 (≈ 1.03 µM) | 50 (≈ 132 µM) | 0.2 (≈ 0.529 µM) | 1.56 (≈ 4.12 µM) | 0.2 (≈ 0.529 µM) | 0.05 (≈ 0.132 µM) | 0.1 (≈ 0.264 µM) | 0.78 (≈ 2.06 µM) | 0.39 (≈ 1.03 µM) | 0.05 (≈ 0.132 µM) | 0.2 (≈ 0.529 µM) | – | – |
